This note sets out measurements from ChEMBL document CHEMBL1139051, “Human ACAT inhibitory effects of shikonin derivatives from Lithospermum erythrorhizon” (Bioorg Med Chem Lett, 2007).

The target of the first assay is T1, Sterol O-acyltransferase 2 (Homo sapiens, UniProt O75908).
T1 sequence (O75908 whole entry): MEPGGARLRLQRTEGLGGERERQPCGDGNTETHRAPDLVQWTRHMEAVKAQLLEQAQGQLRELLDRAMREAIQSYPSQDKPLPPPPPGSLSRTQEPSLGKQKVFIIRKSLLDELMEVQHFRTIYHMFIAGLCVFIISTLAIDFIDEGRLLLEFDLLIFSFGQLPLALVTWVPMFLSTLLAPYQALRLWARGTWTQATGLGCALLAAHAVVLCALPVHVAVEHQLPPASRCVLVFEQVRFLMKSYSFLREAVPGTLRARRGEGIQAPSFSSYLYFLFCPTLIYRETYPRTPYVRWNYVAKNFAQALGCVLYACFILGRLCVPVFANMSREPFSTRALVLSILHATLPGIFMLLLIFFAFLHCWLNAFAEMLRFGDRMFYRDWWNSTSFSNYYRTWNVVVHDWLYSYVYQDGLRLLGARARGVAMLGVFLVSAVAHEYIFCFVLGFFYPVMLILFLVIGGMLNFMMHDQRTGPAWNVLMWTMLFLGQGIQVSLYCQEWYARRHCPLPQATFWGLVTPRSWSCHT
Nature of the assay: Inhibition of human ACAT2 expressed in Hi5 cells. On the set-up: species or system BTI-TN-5B1-4.
Details: not given
`CCC(=O)O[C@H](CC=C(C)C)C1=CC(=O)c2c(O)ccc(O)c2C1=O` showed an IC50 of 28.7 µM.
The same measure, in the same setting: the figure for `CC(C)=CC[C@@H](O)C1=CC(=O)c2c(O)ccc(O)c2C1=O` [SHIKONIN] is 138 µM.
On the same count and under the same terms, the figure for `CCCCC(=O)O[C@H](CC=C(C)C)C1=CC(=O)c2c(O)ccc(O)c2C1=O` is 84.5 µM; for `CC(=O)O[C@H](CC=C(C)C)C1=CC(=O)c2c(O)ccc(O)c2C1=O` [ACETYLSHIKONIN] it is 112 µM.
Same read-out and setting: the figure for `CC(C)=CC[C@@H](OC(=O)c1ccccc1)C1=CC(=O)c2c(O)ccc(O)c2C1=O` is 56.2 µM; for `CCCC(=O)O[C@H](CC=C(C)C)C1=CC(=O)c2c(O)ccc(O)c2C1=O` it is 49.6 µM.
In turn, `CC(C)=CC[C@@H](OC(=O)CC(C)(C)O)C1=CC(=O)c2c(O)ccc(O)c2C1=O` [BETA-HYDROXYISOVALERYLSHIKONIN] registered an IC50 of 170 µM.
Still for that read-out and setting: the value for `CC(C)=CC[C@@H](OC(=O)C(C)C)C1=CC(=O)c2c(O)ccc(O)c2C1=O` [ISOBUTYLSHIKONIN] was 57.5 µM.
Same read-out and setting: the value for `C=CCCC(=O)O[C@H](CC=C(C)C)C1=CC(=O)c2c(O)ccc(O)c2C1=O` was 71.4 µM.

The next assay addresses T2, Sterol O-acyltransferase 1 (Homo sapiens, UniProt P35610).
T2 sequence (P35610 whole entry): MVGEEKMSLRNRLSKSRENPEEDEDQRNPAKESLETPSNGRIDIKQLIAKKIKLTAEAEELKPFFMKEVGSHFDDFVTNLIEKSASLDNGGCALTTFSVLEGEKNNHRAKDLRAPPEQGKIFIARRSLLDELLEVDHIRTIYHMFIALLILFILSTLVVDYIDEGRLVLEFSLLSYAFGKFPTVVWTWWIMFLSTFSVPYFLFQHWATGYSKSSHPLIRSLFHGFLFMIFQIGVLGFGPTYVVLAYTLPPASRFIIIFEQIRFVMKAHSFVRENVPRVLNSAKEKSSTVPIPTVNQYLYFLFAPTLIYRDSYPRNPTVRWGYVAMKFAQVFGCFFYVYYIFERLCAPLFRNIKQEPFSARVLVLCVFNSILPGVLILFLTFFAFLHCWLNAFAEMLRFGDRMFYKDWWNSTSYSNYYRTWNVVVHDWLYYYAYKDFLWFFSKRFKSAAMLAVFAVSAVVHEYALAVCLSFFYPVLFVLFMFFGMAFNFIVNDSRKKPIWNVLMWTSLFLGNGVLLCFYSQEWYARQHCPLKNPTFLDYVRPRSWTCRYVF
Put plainly: Inhibition of human ACAT1 expressed in Hi5 cells. On the set-up: species or system BTI-TN-5B1-4.
Details: not given
`CC(C)=CC[C@@H](OC(=O)CC(C)C)C1=CC(=O)c2c(O)ccc(O)c2C1=O` gave an IC50 of 13.8 µM.

The target of another assay is T3, Sterol O-acyltransferase 1 (Homo sapiens) (UniProt P35610).
T3 sequence (whole entry): T2 sequence (P35610 whole entry)
Nature of the assay: Inhibition of human ACAT1 expressed in Hi5 cells at 120 uM. The note with it: BTI-TN-5B1-4.
Molecule `CC(C)=CC[C@@H](OC(=O)C(C)C)C1=CC(=O)c2c(O)ccc(O)c2C1=O` [ISOBUTYLSHIKONIN] had an inhibition of 32%.

The target in another assay is T2, Sterol O-acyltransferase 1. Put plainly: Inhibition of human ACAT1 expressed in AC29 cells by cell-based fluorescent assay system.
Details: not given
Molecule `CC(C)=CC[C@@H](OC(=O)CC(C)C)C1=CC(=O)c2c(O)ccc(O)c2C1=O` yielded an IC50 of 0.6 µM.
